According to paper PMC6698739, “Structural intermediates of a DNA–ligase complex illuminate the role of the catalytic metal ion and mechanism of phosphodiester bond formation” (Nucleic Acids Research, 2019):

Biological target: T1, Pmar-Lig (Prochlorococcus marinus, UniProt A0A0A2ACP7)
T1 construct: gene EU96_0746; codon-optimised synthetic gene in pDEST17; tag removed; three domains (DB, AD, OB); 432 residues modelled in wild-type crystals
Assay: X-ray crystal structure, […] A
Type: binding
Details: post-step 3 complex with sealed DNA product; partial occupancy (adenine nucleobase 0.75, phosphate 0.5); some residual covalent DNA-adenylate; pH 6.5 crystallisation

T1 sequence (A0A0A2ACP7 entry or part of it): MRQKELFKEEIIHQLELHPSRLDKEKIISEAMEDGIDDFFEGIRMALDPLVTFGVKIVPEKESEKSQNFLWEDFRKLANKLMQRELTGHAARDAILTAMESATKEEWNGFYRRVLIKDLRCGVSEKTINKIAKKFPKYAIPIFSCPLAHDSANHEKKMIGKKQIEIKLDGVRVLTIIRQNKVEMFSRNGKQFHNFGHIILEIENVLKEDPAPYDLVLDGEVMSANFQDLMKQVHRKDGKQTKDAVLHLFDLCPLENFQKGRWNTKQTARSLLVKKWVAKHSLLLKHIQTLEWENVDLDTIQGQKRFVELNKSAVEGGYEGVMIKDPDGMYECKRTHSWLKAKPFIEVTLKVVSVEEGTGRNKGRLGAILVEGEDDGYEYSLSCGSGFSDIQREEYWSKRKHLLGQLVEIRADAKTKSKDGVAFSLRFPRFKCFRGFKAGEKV

## Nc1ncnc2c1ncn2[C@@H]1O[C@H](COP(=O)(O)O)[C@@H](O)[C@H]1O [AMP]
  X-ray crystal structure, 1.99 A: with the DNA product retained in the active site, as well as residual AMP
